According to the supplement of paper PMC10307832:

What was measured:
Assay in all cases: relative viability (nuclei count vs DMSO), 5 days (fraction); higher = more cells survive
[1] = compound: O=C(/C=C/c1ccccc1)NC(NC(=S)Nc1cccc2cccnc12)C(Cl)(Cl)Cl [Salubrinal] + CC(=O)Nc1cccc(-n2c(=O)n(C3CC3)c(=O)c3c(Nc4ccc(I)cc4F)n(C)c(=O)c(C)c32)c1 [Trametinib] (partner 0.02 µM)
In short: (§1)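 Nuclei were stained with Hoechst during a one-step fixation (final 0.05% Triton X-100, 1% formaldehyde, 1 ug/ml Hoechst) carried out 5 days after dosing, then counted on 4× images. The cells, lung cancer lines in 1536-well plates, had been dosed by pin tool the day after seeding with one drug alone or a fixed anchor-drug dose plus five library-drug doses (not always all listed) in √10 steps. Relative viability is the nuclei count in treated wells divided by that in vehicle wells, and each value is the median of duplicate plates.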

[2] = compound: Cc1ccc2nc(NCCN)c3ncc(C)n3c2c1 + Cc1nc(Nc2ncc(C(=O)Nc3c(C)cccc3Cl)s2)cc(N2CCN(CCO)CC2)n1 [Dasatinib] (partner 0.075 µM)
In short: as §1

[3] = compound: Cc1ccc2nc(NCCN)c3ncc(C)n3c2c1 + CC(C)C[C@H](NC(=O)[C@H](Cc1ccccc1)NC(=O)c1cnccn1)B(O)O [Bortezomib] (partner 0.002 µM)
In short: as §1

[4] = compound: O=C(/C=C/c1ccccc1)NC(NC(=S)Nc1cccc2cccnc12)C(Cl)(Cl)Cl [Salubrinal] + COc1cc2c(Oc3ccc(NC(=O)C4(C(=O)Nc5ccc(F)cc5)CC4)cc3F)ccnc2cc1OCCCN1CCOCC1 [Foretinib] (partner 0.25 µM)
In short: as §1

Row | Cell Line | relative viability ([1]; first compound 0.08 µM) | relative viability ([1]; first compound 0.253 µM) | relative viability ([1]; first compound 0.8 µM) | relative viability ([1]; first compound 2.53 µM) | relative viability ([1]; first compound 8 µM) | relative viability ([2]; first compound 0.04 µM) | relative viability ([2]; first compound 0.1265 µM) | relative viability ([2]; first compound 0.4 µM) | relative viability ([2]; first compound 1.265 µM) | relative viability ([2]; first compound 4 µM) | relative viability ([3]; first compound 0.04 µM) | relative viability ([3]; first compound 0.1265 µM) | relative viability ([3]; first compound 0.4 µM) | relative viability ([3]; first compound 1.265 µM) | relative viability ([3]; first compound 4 µM) | relative viability ([4]; first compound 0.08 µM) | relative viability ([4]; first compound 0.253 µM) | relative viability ([4]; first compound 0.8 µM) | relative viability ([4]; first compound 2.53 µM) | relative viability ([4]; first compound 8 µM)
1 | A-427 | 0.782 | 0.812 | 0.791 | 0.689 | 0.764 | 0.682 | 0.654 | 0.644 | 0.632 | 0.628 | 1.05 | 1.15 | 0.929 | 0.978 | 0.962 | 0.993 | 1.32 | 1.18 | 1.02 | 1.17
2 | NCI-H2347 | 0.279 | 0.258 | 0.395 | 0.262 | 0.294 | 0.32 | 0.333 | 0.355 | 0.266 | 0.317 | 1.09 | 0.919 | 0.932 | 1.14 | 1.07 | 0.906 | 1.15 | 1.4 | 0.797 | 1.08
3 | NCI-H1355 | 0.445 | 0.452 | 0.414 | 0.433 | 0.315 | 0.712 | 0.728 | 0.678 | 0.667 | 0.638 | 1.25 | 1.19 | 1.02 | 1.14 | 1.06 | 1.08 | 1.01 | 0.977 | 0.951 | 0.883
4 | NCI-H1944 | 0.451 | 0.448 | 0.403 | 0.399 | 0.374 | 0.242 | 0.216 | 0.212 | 0.269 | 0.248 |  |  |  |  |  | 0.871 | 0.987 | 0.885 | 0.913 | 0.904
5 | PC-3 [JPC-3] | 0.734 | 0.697 | 0.65 | 0.693 | 0.651 | 1.11 | 0.995 | 0.857 | 1.01 | 0.932 | 0.863 | 0.893 | 0.723 | 0.842 | 0.707 | 0.99 | 0.918 | 1.07 | 1 | 0.998
6 | NCI-H2228 | 0.457 |  | 0.745 | 0.385 | 0.622 | 0.496 | 0.456 | 0.455 | 0.505 | 0.377 | 1.11 | 0.992 | 1.16 | 1.13 | 0.907 | 0.976 | 0.875 | 0.953 | 0.844 | 0.868
7 | HOP-62 | 0.438 | 0.369 | 0.382 | 0.343 | 0.338 | 0.772 | 0.626 | 0.644 | 0.634 | 0.649 | 1.02 | 0.692 | 0.613 | 0.86 | 0.432 | 1.07 | 0.981 | 1.22 | 1.08 | 1.14
8 | HARA | 0.715 | 0.873 | 0.631 | 0.621 | 0.702 | 0.295 | 0.282 | 0.313 | 0.243 | 0.255 | 1.14 | 1.11 | 1.13 | 1.06 | 1.1 | 0.836 | 0.628 | 0.917 | 1.08 | 0.69
